Drawing on ChEMBL document CHEMBL4715827, “Structure-guided design of pyridoclax derivatives based on Noxa / Mcl-1 interaction mode” (Eur J Med Chem, 2018), this text covers Activity and inhibition for 8 molecules.

The subject of test [1] is IGROV1-R10. The experiment in a line: Pro-apoptotic activity in human IGROV1-R10 cells transfected with Bcl-xL siRNA assessed as increase in cleaved PARP expression at 25 uM measured after 24 hrs by Western blot analysis. It is filed as functional, cell-based. In general terms: A western blot detects proteins with antibodies after separation by electrophoresis.
Test [2] relates to IGROV1-R10. The experiment in a line: Pro-apoptotic activity in human IGROV1-R10 cells transfected with Bcl-xL siRNA assessed as morphological alteration at 25 uM measured after 24 hrs by DAPI staining based fluorescence microscopy analysis. It is filed as functional, cell-based.
The nature of test [3]: Pro-apoptotic activity in human IGROV1-R10 cells transfected with Bcl-xL siRNA assessed as condensed nuclei at 25 uM measured after 24 hrs by DAPI staining based fluorescence microscopy analysis relative to control. It is filed as functional.
Test [4] in a line: Pro-apoptotic activity in human IGROV1-R10 cells transfected with Bcl-xL siRNA assessed as accumulation at sub G1 phase at 25 uM incubated for 24 hrs by propidium iodide staining based flow cytometry analysis (reference value: 17% ). It is filed as functional.
A short description of test [5]: Pro-apoptotic activity in human IGROV1-R10 cells transfected with control siRNA assessed as accumulation at sub G1 phase at 25 uM incubated for 24 hrs by propidium iodide staining based flow cytometry analysis (reference value: 4.5% ). It is filed as functional. On the technique in general: A flow cytometer gives signals particle by particle.
Test [6] deals with IGROV1-R10. In words: Pro-apoptotic activity in human IGROV1-R10 cells transfected with Bcl-xL siRNA assessed as increase in cleaved caspase-3 expression at 25 uM measured after 24 hrs by Western blot analysis. It is filed as functional, cell-based.
Test [7] in a line: Pro-apoptotic activity in human IGROV1-R10 cells assessed as accumulation at sub G1 phase at 10 uM incubated for 24 hrs in presence of ABT-737 by propidium iodide staining based flow cytometry analysis (reference value: 10.8% ). It is filed as functional.
The nature of test [8]: Pro-apoptotic activity in human IGROV1-R10 cells assessed as accumulation at sub G1 phase at 10 uM incubated for 24 hrs by propidium iodide staining based flow cytometry analysis (reference value: 2 % ). It is filed as functional.
A short description of test [9]: Pro-apoptotic activity in human IGROV1-R10 cells assessed as accumulation at sub G1 phase at 25 uM incubated for 24 hrs by propidium iodide staining based flow cytometry analysis (reference value: 2.8% ). It is filed as functional.
Test [10] deals with SK-OV-3. The experiment in a line: Pro-apoptotic activity in human SKOV3 cells assessed as increase in caspase3/7 positive cells at 25 uM measured after 24 hrs in presence of ABT-737 by DAPI staining based fluorescence microscopy analysis. It is filed as functional, cell-based.
Test [11] relates to A2780. The experiment in a line: Pro-apoptotic activity in human A2780 cells assessed as increase in caspase3/7 positive cells at 25 uM measured after 24 hrs in presence of ABT-737 by DAPI staining based fluorescence microscopy analysis. It is filed as functional, cell-based.
Test [12] is described as follows: Pro-apoptotic activity in human IGROV1-R10 cells assessed as accumulation at sub G1 phase at 15 uM incubated for 24 hrs by propidium iodide staining based flow cytometry analysis (reference value: 2 % ). It is filed as functional.
A short description of test [13]: Pro-apoptotic activity in human IGROV1-R10 cells assessed as accumulation at sub G1 phase at 25 uM incubated for 24 hrs in presence of ABT-737 by propidium iodide staining based flow cytometry analysis (reference value: 21.2% ). It is filed as functional.
A short description of test [14]: Pro-apoptotic activity in human IGROV1-R10 cells assessed as accumulation at sub G1 phase at 15 uM incubated for 24 hrs in presence of ABT-737 by propidium iodide staining based flow cytometry analysis (reference value: 10.8% ). It is filed as functional.
For test [15], the target named is Induced myeloid leukemia cell differentiation protein Mcl-1 (Homo sapiens) (UniProt Q07820). In words: Inhibition of FAM-Bim peptide binding to MCL-1 in human MCF-7 cells assessed as disruption by BRET assay. It is filed as cell-based. Conditions: MCF7. On the technique in general: In BRET a luciferase serves as donor, and the signal depends on an acceptor being close.
Induced myeloid leukemia cell differentiation protein Mcl-1 (Homo sapiens), sequence (Q07820 whole entry): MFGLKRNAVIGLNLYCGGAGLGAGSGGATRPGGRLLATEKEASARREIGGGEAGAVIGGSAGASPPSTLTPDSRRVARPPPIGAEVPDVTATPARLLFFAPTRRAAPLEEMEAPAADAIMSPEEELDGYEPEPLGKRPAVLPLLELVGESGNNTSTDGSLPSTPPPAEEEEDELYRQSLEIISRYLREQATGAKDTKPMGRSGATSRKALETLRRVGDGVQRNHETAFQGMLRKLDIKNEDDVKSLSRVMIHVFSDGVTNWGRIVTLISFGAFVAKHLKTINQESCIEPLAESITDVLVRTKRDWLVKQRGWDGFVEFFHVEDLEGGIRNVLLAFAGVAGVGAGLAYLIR

Molecules are shown by their SMILES. Activity calls are given as the source filed them. No cut-off for these calls is given here.

Regarding `Cc1cc(-c2ncc(-c3cccc(CC(=O)O)c3)cc2/C=C/c2ccccc2)cnc1-c1cccnc1`, the outcome in test [1] and in test [6] was Active. Besides, the outcome in test [2] was inactive. The Activity in test [3] is 31.7%; in test [4], 46.8%; in [5], 4.6%.
Consider `Cc1cc(-c2ncc(-c3cccnc3)cc2/C=C/c2ccccc2)cnc1-c1cccnc1`, for which the Activity in test [7] came out at 22.5%; in test [8], 2.5%; in [9], 6.46%; in test [3], 63.4%; in test [4] it was 62.76%; in test [12], 4.9%. Further, the Activity in [13] is listed as 70.99%; in [14], 36.1%. Further, the result in [1], in test [10], in test [11] and in [6] was Active. Further, the outcome in test [2] was inactive.
On to `Cc1cc(-c2ncc(-c3cccnc3)cc2/C=C/c2ccccc2)cnc1-c1cccc(CC#N)c1`, for which the result in [1] and in [6] was Active. In addition, the result in test [2] was inactive. The Activity in test [3] is 35.1%; in test [4] it was 43%; in [5], 6.5%.
In the case of `Cc1cc(-c2ncc(-c3cccnc3)cc2/C=C/c2ccccc2)cnc1-c1cccc(CC(=O)O)c1`, the inhibition result in [15] is “inactive”. Moreover, the result in test [1] was Active. Also, the result in [2] and in test [6] was inactive. For the same molecule, the results for the Activity in test [3], in test [4] and in test [5] were 7.8%, 14.5% and 6%, respectively.
In the case of `Cc1cc(-c2ncc(-c3cccc(O)c3)cc2/C=C/c2ccccc2)cnc1-c1cccnc1`, the result in test [1] and in test [6] was Active. In addition, the outcome in test [2] was inactive. Further, the Activity in [3] is listed as 19.9%; in test [4], 37.5%; in test [5], 5.5%.
For the molecule `Cc1cc(-c2ncc(-c3cccnc3)cc2/C=C/c2ccccc2)cnc1-c1cccc(O)c1`, the outcome in test [1] and in test [6] was Active. Further, the outcome in [2] was inactive. For the same molecule, the values for the Activity in test [3], in [4] and in test [5] were 35.9%, 52.2% and 12.5%, respectively.
For the molecule `Cc1cc(-c2ncc(-c3cccc(CC#N)c3)cc2/C=C/c2ccccc2)cnc1-c1cccnc1`, the outcome in test [1] and in test [6] was Active. In addition, the result in test [2] was inactive. For the same molecule, the Activity came to 25.3% in test [3], 36.9% in test [4] and 53% in test [5].
Regarding `Cc1cc(-c2ncc(-c3cccc(C/C(N)=N/O)c3)cc2/C=C/c2ccccc2)cnc1-c1cccnc1`, the result in test [1] and in test [6] was Active. In addition, the result in [2] was inactive. Besides, the Activity in [3] is on record as 28%; in test [4], 45.3%; in test [5], 4.8%.
